Some test systems named below: A498; ACHN; CAKI-1; COLO 205; HCT-116; HOP-92; KM12; NCI-H226; NCI-H23; NCI-H460; RPMI-8226; SF-268; UACC-257; UO-31; SK-MEL-5; HCT-15; Hs-578T; MCF7; PC-3; MDA-N.
Holding throughout (assay): NCI-60 cell line screen, 48 h

The structures appear in SMILES notation.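 Five concentrations, 48 hours, 96-well plates. At the GI50, growth is halved.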 Calls of active or inactive are those of the source. Rule as the data show it: active = GI50 up to about 1.1 µM and inactive = higher. Bounds are passed on as bounds.

In the case of `COc1cc(Br)c(CC2NCCc3cc(OC)c(OC)cc32)cc1OC` (stereo not drawn), the GI50 was 76 µM (inactive) in the test on A498; 79.1 µM (inactive) with ACHN; 68.7 µM (inactive) in the test with CAKI-1; 32.7 µM (inactive) with COLO 205; 24.4 µM (inactive) in the test with HCT-116; 16.5 µM (inactive) in the test with HOP-92. Besides, the GI50 with KM12 was 73.6 µM (inactive); with NCI-H226, 32.8 µM (inactive); with NCI-H23, 20.9 µM (inactive); in the test with NCI-H460, 55.2 µM (inactive); in the test with RPMI-8226 it was 18.8 µM (inactive); with SF-268, > 100 µM (inactive). Besides, the GI50 in the test on UACC-257 is 40.2 µM (inactive); in the test with UO-31, 25.7 µM (inactive).

Regarding `COc1ccc(C2COc3c(ccc(OC)c3OC)C2=O)cc1OC` (stereo not drawn), the GI50 with A498, in the test on ACHN, in the test with CAKI-1, with COLO 205, in the test on HCT-116 and in the test on HOP-92 was > 100 µM (inactive) each time. Moreover, the GI50 in the test on KM12, with NCI-H226, in the test on NCI-H23, in the test with NCI-H460, in the test with RPMI-8226 and with SF-268 was > 100 µM (inactive) throughout. Further, the GI50 in the test with SK-MEL-5, with UACC-257 and in the test with UO-31 was > 100 µM (inactive) each time.

Turning to `COc1ccc(C2C(C=O)C(N3CCN(C)CC3)=Nc3nc4ccccc4n32)cc1` (stereo not drawn), the GI50 in the test with A498 is 11 µM (inactive); with ACHN, 18.2 µM (inactive); with CAKI-1 it was 19.1 µM (inactive); in the test with COLO 205, 16.8 µM (inactive); in the test with HCT-116, 14.6 µM (inactive); with HCT-15, 17.8 µM. The GI50 is 4.83 µM (inactive) in the test with HOP-92; 33 µM (inactive) in the test with Hs-578T; 16.3 µM (inactive) with KM12; 13.2 µM (inactive) in the test with MCF7; 16.7 µM (inactive) in the test with NCI-H226; 20.5 µM (inactive) in the test on NCI-H23. Also, the GI50 is 25.2 µM (inactive) in the test on NCI-H460; 16.3 µM (inactive) in the test on PC-3; 2.35 µM (inactive) with RPMI-8226; 16.6 µM (inactive) in the test on SF-268; 15.9 µM (inactive) in the test with SK-MEL-5; 16.6 µM (inactive) in the test with UACC-257. In addition, the GI50 in the test with UO-31 was 14.4 µM (inactive).

For `CC1OC(CC(=O)O)Cc2c(O)c3c(c(O)c21)C(=O)C=C(C1=CC(=O)c2c(O)c4c(c(O)c2C1=O)CC(CC(=O)O)OC4C)C3=O` (stereo not drawn), the GI50 was 18.9 µM (inactive) in the test on A498; 26.1 µM (inactive) in the test with ACHN; 29.1 µM (inactive) in the test with CAKI-1; 5.28 µM (inactive) with COLO 205; 10.9 µM (inactive) in the test on HCT-116; 11.6 µM in the test on HCT-15. In addition, the GI50 was 24.3 µM (inactive) in the test with HOP-92; 39.1 µM (inactive) in the test on KM12; 50.8 µM (inactive) in the test on NCI-H226; 17.6 µM (inactive) in the test with NCI-H23; 60.8 µM (inactive) in the test with NCI-H460; 12.4 µM (inactive) with RPMI-8226. Besides, the GI50 was 32 µM (inactive) with SF-268, 16.4 µM (inactive) in the test with SK-MEL-5, 13.4 µM (inactive) with UACC-257 and 47.2 µM (inactive) in the test on UO-31.

Regarding `O=c1c2ccccc2nc(-c2cccc(Cl)c2)n1NC1OC(CO)C(O)C(O)C1O` (stereo not drawn), the GI50 is > 100 µM (inactive) in the test with A498; > 100 µM (inactive) in the test on ACHN; > 100 µM (inactive) in the test with CAKI-1; > 100 µM (inactive) in the test on COLO 205; > 100 µM (inactive) in the test on HCT-116; greater than 100 µM in the test with HCT-15. Further, the GI50 in the test on HOP-92, in the test on KM12, in the test on NCI-H226, in the test with NCI-H23, with NCI-H460 and in the test with RPMI-8226 was > 100 µM (inactive) throughout. In addition, the GI50 in the test with SF-268, with SK-MEL-5, with UACC-257 and in the test with UO-31 was > 100 µM (inactive) throughout.

Turning to `CN(C)CCNc1ccc(CO)c2sc3ccc(O)cc3c(=O)c12`, the GI50 is 6.89 µM (inactive) with A498; 0.351 µM (active) in the test with ACHN; 0.957 µM (active) in the test with CAKI-1; 4.3 µM (inactive) in the test on COLO 205; 1.12 µM (inactive) with HCT-116; 2.31 µM in the test on HCT-15. Moreover, the GI50 with HOP-92 was 0.832 µM (active); in the test with KM12 it was 2.34 µM (inactive); in the test on MDA-N, 1.45 µM (inactive); with NCI-H226, 1.15 µM (inactive); in the test on NCI-H23 it was 0.869 µM (active); with NCI-H460 it was 0.0259 µM (active). For the same compound, the GI50 was 1.32 µM (inactive) in the test with PC-3; 1.69 µM (inactive) in the test with RPMI-8226; 1.55 µM (inactive) in the test on SF-268; 1.29 µM (inactive) in the test with SK-MEL-5; 5.24 µM (inactive) with UACC-257; 0.35 µM (active) in the test on UO-31.

In the case of `CCOC(=O)c1nc2ccc(C(F)(F)F)cc2nc1Oc1ccc(F)cc1`, the GI50 is > 100 µM (inactive) in the test on A498; > 100 µM (inactive) with ACHN; > 100 µM (inactive) in the test with CAKI-1; > 100 µM (inactive) in the test on COLO 205; > 100 µM (inactive) in the test with HCT-116; greater than 100 µM in the test on HCT-15. Moreover, the GI50 in the test with HOP-92, in the test on Hs-578T, in the test with KM12, with MCF7, with NCI-H226 and with NCI-H23 was > 100 µM (inactive) in each case. The GI50 in the test with NCI-H460, with PC-3, in the test on RPMI-8226, in the test on SF-268, in the test on SK-MEL-5 and with UACC-257 was > 100 µM (inactive) throughout. For the same compound, in the test on UO-31, the GI50 is > 100 µM (inactive).

For the compound `COC[C@@H]1[C@H]2OC(C)(C)O[C@H]2C(=O)N1C(=O)c1ccc(OC)cc1`, the GI50 in the test on A498 was > 100 µM (inactive); in the test on ACHN, > 100 µM (inactive); with CAKI-1, > 100 µM (inactive); in the test with COLO 205 it was > 100 µM (inactive); in the test on HCT-116 it was > 100 µM (inactive); with HCT-15, greater than 100 µM. Further, the GI50 with HOP-92, in the test on KM12, in the test on NCI-H226, in the test with NCI-H23, in the test on NCI-H460 and with RPMI-8226 was > 100 µM (inactive) each time. Moreover, the GI50 with SF-268, in the test on SK-MEL-5, with UACC-257 and with UO-31 was > 100 µM (inactive) each time.

In the case of `Oc1ccc(N=C2CCC(=C(c3ccccc3)c3ccc(Nc4ccc(O)cc4)cc3)CC2)cc1`, the GI50 is > 100 µM (inactive) in the test on A498; 67.1 µM (inactive) with ACHN; 35.4 µM (inactive) in the test on CAKI-1; 33.3 µM (inactive) with COLO 205; 39.4 µM (inactive) in the test with HCT-116; greater than 100 µM in the test on HCT-15. Also, the GI50 with HOP-92 was > 100 µM (inactive); in the test with KM12, 32.4 µM (inactive); in the test on MCF7, > 100 µM (inactive); with NCI-H226 it was > 100 µM (inactive); in the test on NCI-H23, 62.7 µM (inactive); with NCI-H460, 85.7 µM (inactive). For the same compound, the GI50 in the test with PC-3 was 96.2 µM (inactive); with RPMI-8226, 46.1 µM (inactive); in the test on SF-268, 50.9 µM (inactive); with SK-MEL-5, > 100 µM (inactive); in the test on UACC-257, > 100 µM (inactive); in the test on UO-31 it was 57.4 µM (inactive).

Take `Cc1ccc(-c2c(C#N)c(O)n(NS(=O)(=O)c3ccccc3)c(=O)c2C#N)cc1`: the GI50 in the test with A498 was > 100 µM (inactive); with ACHN, > 100 µM (inactive); in the test on CAKI-1, > 100 µM (inactive); with COLO 205, > 100 µM (inactive); with HCT-116, > 100 µM (inactive); in the test on HCT-15, greater than 100 µM. Moreover, the GI50 in the test with HOP-92, with KM12, in the test with MCF7, in the test on NCI-H226, in the test with NCI-H460 and in the test on PC-3 was > 100 µM (inactive) throughout. Moreover, the GI50 with SF-268 was > 100 µM (inactive); with SK-MEL-5, 68.5 µM (inactive); with UACC-257, > 100 µM (inactive).

For the compound `Cc1cccc(/C=N/C23CC4CC(CC(C4)C2)C3)c1`, the GI50 in the test on A498 was > 100 µM (inactive); in the test with ACHN it was > 100 µM (inactive); in the test with CAKI-1, > 100 µM (inactive); in the test on COLO 205, > 100 µM (inactive); in the test on HCT-116, > 100 µM (inactive); in the test on HCT-15, greater than 100 µM. Further, the GI50 in the test on HOP-92, with KM12, in the test on NCI-H226, with NCI-H23, in the test on NCI-H460 and with RPMI-8226 was > 100 µM (inactive) each time. Moreover, the GI50 with SF-268, in the test on SK-MEL-5, with UACC-257 and in the test on UO-31 was > 100 µM (inactive) throughout.

Regarding `COc1ccc(C2CC(C)=Nc3c(O)nc(S)nc3N2)cc1` (stereo not drawn), the GI50 with A498 was 19.2 µM (inactive); in the test on ACHN, 18.7 µM (inactive); in the test with CAKI-1 it was 27.6 µM (inactive); in the test on COLO 205 it was 18.6 µM (inactive); with HCT-116, 16.5 µM (inactive); in the test on HCT-15, 16.3 µM. Besides, the GI50 with HOP-92 was > 100 µM (inactive); in the test with KM12, 17.4 µM (inactive); in the test on NCI-H226, 17.2 µM (inactive); with NCI-H23 it was 30.5 µM (inactive); with NCI-H460, 16.6 µM (inactive); in the test with RPMI-8226 it was 22.3 µM (inactive). The GI50 in the test on SF-268 is 37.7 µM (inactive); in the test with SK-MEL-5 it was 16.7 µM (inactive); in the test on UACC-257, 16.8 µM (inactive); in the test on UO-31, 17.9 µM (inactive).

These data come from ChEMBL document CHEMBL1201862, “PubChem BioAssay data set” (2004).
